SMILES strings stand for the structures.

Platelet-activating factor receptor, sequence (P25105 whole entry): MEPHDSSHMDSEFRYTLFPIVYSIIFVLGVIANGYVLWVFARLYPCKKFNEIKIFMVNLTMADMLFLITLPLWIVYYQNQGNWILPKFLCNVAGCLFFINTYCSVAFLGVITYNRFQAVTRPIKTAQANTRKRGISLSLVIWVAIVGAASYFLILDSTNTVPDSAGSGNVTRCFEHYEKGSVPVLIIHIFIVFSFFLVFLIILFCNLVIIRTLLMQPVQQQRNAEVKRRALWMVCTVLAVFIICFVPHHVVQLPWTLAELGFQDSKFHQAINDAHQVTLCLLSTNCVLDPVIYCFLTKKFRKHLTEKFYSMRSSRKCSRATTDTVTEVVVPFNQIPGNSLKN

The first data set concerns the target T1, Vasoactive intestinal polypeptide receptor 1 (Homo sapiens, UniProt P32241). Note: in other assays of this panel Not Active means under 50% inhibition at 10 µM.
T1 sequence (P32241 whole entry): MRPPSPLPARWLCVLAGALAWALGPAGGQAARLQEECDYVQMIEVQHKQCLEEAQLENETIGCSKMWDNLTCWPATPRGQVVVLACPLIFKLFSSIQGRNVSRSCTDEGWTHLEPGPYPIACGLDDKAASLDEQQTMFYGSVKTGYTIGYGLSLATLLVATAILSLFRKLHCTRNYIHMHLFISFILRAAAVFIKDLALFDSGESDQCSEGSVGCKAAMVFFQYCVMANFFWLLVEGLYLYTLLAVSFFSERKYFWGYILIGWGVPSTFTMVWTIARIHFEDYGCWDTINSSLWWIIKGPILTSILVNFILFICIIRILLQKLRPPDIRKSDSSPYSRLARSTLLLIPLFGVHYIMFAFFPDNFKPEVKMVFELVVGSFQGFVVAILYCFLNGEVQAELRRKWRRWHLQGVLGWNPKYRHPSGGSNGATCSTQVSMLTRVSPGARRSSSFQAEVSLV
Assay: not given
In kind it is cell membranes, Membrane. The settings on record: ht-29.
On to `Nc1nnc(-c2cccc(Cl)c2Cl)c(N)n1` [LAMOTRIGINE], for which the IC50 result was “Not Active”.

Regarding `NNC(=O)c1ccncc1` [ISONIAZID], the IC50 entry is on record as “Not Active”.

Regarding `NC(=O)c1ccccc1O` [SALICYLAMIDE], the IC50 entry is given as “Not Active”.

Take `Nc1ccc(S(N)(=O)=O)cc1` [SULFANILAMIDE]: the IC50 entry is reported as “Not Active”.

For the compound `CC1CN(c2cc3c(cc2F)c(=O)c(C(=O)O)cn3-c2ccc(F)cc2F)CCN1` (stereo not given) [TEMAFLOXACIN], the IC50 result was “Not Active”.

A further data set concerns the target T2, 3-hydroxy-3-methylglutaryl-coenzyme A reductase (Homo sapiens, UniProt P04035).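 Note: enzyme inhibition assay of HMG-CoA reductase using radiolabeled [14C]HMG-CoA as substrate; in other assays of this panel Not Active means under 50% inhibition at 10 µM.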
T2 sequence (P04035 whole entry): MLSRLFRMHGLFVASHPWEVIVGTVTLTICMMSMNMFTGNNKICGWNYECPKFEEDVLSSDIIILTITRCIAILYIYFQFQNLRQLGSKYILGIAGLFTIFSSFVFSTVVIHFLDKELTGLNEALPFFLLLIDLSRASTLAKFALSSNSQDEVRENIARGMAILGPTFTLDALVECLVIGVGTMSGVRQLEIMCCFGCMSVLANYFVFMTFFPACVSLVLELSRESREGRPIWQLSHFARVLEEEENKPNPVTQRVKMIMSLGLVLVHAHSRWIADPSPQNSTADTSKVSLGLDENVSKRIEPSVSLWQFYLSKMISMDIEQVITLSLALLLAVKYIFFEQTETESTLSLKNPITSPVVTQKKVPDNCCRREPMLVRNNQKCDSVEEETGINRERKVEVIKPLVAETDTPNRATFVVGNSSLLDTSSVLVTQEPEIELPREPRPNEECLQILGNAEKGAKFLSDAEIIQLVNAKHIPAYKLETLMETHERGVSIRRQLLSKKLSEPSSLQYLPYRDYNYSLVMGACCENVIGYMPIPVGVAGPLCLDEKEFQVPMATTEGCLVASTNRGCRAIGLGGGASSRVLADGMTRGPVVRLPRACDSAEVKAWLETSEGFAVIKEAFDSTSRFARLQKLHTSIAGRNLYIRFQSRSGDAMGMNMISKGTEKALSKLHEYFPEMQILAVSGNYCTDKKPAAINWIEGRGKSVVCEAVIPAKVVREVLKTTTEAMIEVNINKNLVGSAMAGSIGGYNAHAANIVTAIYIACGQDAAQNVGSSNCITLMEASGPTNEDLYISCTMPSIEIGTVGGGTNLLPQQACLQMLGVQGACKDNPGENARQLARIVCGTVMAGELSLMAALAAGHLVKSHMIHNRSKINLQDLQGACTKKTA
Assay: not given
On the set-up: species or system Escherichia coli.
Settings: not given
Consider `Nc1nnc(-c2cccc(Cl)c2Cl)c(N)n1` [LAMOTRIGINE], for which the IC50 entry was “Not Active”.

Consider `NNC(=O)c1ccncc1` [ISONIAZID], for which the IC50 result is reported as “Not Active”.

As to `NC(=O)c1ccccc1O` [SALICYLAMIDE], the IC50 entry is listed as “Not Active”.

On to `Nc1ccc(S(N)(=O)=O)cc1` [SULFANILAMIDE], for which the IC50 result was “Not Active”.

Turning to `CC1CN(c2cc3c(cc2F)c(=O)c(C(=O)O)cn3-c2ccc(F)cc2F)CCN1` (stereo not given) [TEMAFLOXACIN], the IC50 entry is on record as “Not Active”.

Test system in a further data set: not listed separately
Nature of the data set: DRUGMATRIX: Imidazoline I2, Central radioligand binding (ligand: [3H] Idazoxan). The settings on record: Not Active = under 50% inhibition at 10 µM. In kind it is cell membranes, Rattus norvegicus, Wistar, Cerebral cortex, Membrane.
Take `Nc1nnc(-c2cccc(Cl)c2Cl)c(N)n1` [LAMOTRIGINE]: the IC50 result is on record as “Not Active” and the Ki result is given as “Not Active”.

For `NNC(=O)c1ccncc1` [ISONIAZID], the IC50 result is on record as “Not Active” and the Ki result is reported as “Not Active”.

With `NC(=O)c1ccccc1O` [SALICYLAMIDE], the IC50 entry was “Not Active” and the Ki entry is “Not Active”.

In the case of `Nc1ccc(S(N)(=O)=O)cc1` [SULFANILAMIDE], the IC50 entry is given as “Not Active” and the Ki entry is on record as “Not Active”.

Take `CC1CN(c2cc3c(cc2F)c(=O)c(C(=O)O)cn3-c2ccc(F)cc2F)CCN1` (stereo not given) [TEMAFLOXACIN]: the IC50 result is “Not Active” and the Ki result is on record as “Not Active”.

A further data set has as its target Platelet-activating factor receptor (Homo sapiens, UniProt P25105). Put plainly: biochemical. The class given is tissue-based. The settings on record: platelet. Note: in other assays of this panel Not Active means under 50% inhibition at 10 µM.
Take `Nc1nnc(-c2cccc(Cl)c2Cl)c(N)n1` [LAMOTRIGINE]: the IC50 result is recorded as “Not Active”.

Consider `NNC(=O)c1ccncc1` [ISONIAZID], for which the IC50 result is reported as “Not Active”.

Consider `NC(=O)c1ccccc1O` [SALICYLAMIDE], for which the IC50 result is listed as “Not Active”.

Take `Nc1ccc(S(N)(=O)=O)cc1` [SULFANILAMIDE]: the IC50 result is given as “Not Active”.

For `CC1CN(c2cc3c(cc2F)c(=O)c(C(=O)O)cn3-c2ccc(F)cc2F)CCN1` (stereo not given) [TEMAFLOXACIN], the IC50 entry is “Not Active”.

Test system in a further data set: not listed separately
Nature of the data set: DRUGMATRIX: Purinergic P2X radioligand binding (ligand: [3H] alpha, beta-Methylene-ATP). In kind it is cell membranes, Oryctolagus cuniculus, New Zealand albino, Urinary bladder, Membrane. The settings on record: Not Active = under 50% inhibition at 10 µM.
On to `Nc1nnc(-c2cccc(Cl)c2Cl)c(N)n1` [LAMOTRIGINE], for which the IC50 result is on record as “Not Active” and the Ki result is listed as “Not Active”.

As for `NNC(=O)c1ccncc1` [ISONIAZID], the IC50 entry is on record as “Not Active” and the Ki entry was “Not Active”.

On to `NC(=O)c1ccccc1O` [SALICYLAMIDE], for which the IC50 entry is given as “Not Active” and the Ki entry was “Not Active”.

Regarding `Nc1ccc(S(N)(=O)=O)cc1` [SULFANILAMIDE], the IC50 entry is “Not Active” and the Ki entry is recorded as “Not Active”.

For `CC1CN(c2cc3c(cc2F)c(=O)c(C(=O)O)cn3-c2ccc(F)cc2F)CCN1` (stereo not given) [TEMAFLOXACIN], the IC50 result was “Not Active” and the Ki entry is “Not Active”.

The target of another data set is T3, 5-hydroxytryptamine receptor 1A (Rattus norvegicus, UniProt P19327). Note: in other assays of this panel Not Active means under 50% inhibition at 10 µM.
T3 sequence (P19327 whole entry): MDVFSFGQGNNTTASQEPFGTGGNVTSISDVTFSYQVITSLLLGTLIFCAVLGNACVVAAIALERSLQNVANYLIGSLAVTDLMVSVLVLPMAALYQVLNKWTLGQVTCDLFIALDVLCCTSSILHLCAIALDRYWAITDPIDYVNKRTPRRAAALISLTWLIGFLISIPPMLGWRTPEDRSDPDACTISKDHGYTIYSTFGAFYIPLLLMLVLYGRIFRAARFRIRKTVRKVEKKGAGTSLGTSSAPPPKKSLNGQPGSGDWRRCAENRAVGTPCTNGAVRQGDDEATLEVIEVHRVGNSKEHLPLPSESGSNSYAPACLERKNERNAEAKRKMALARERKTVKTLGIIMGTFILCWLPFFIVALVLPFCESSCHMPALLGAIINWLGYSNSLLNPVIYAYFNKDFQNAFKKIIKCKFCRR
Assay: not given
The settings on record: cho-k1. The class given is cell membranes, CHO-K1, Membrane.
For `Nc1nnc(-c2cccc(Cl)c2Cl)c(N)n1` [LAMOTRIGINE], the IC50 entry is “Not Active”.

On to `NNC(=O)c1ccncc1` [ISONIAZID], for which the IC50 result is “Not Active”.

Turning to `NC(=O)c1ccccc1O` [SALICYLAMIDE], the IC50 result was “Not Active”.

In the case of `Nc1ccc(S(N)(=O)=O)cc1` [SULFANILAMIDE], the IC50 entry was “Not Active”.

Regarding `CC1CN(c2cc3c(cc2F)c(=O)c(C(=O)O)cn3-c2ccc(F)cc2F)CCN1` (stereo not given) [TEMAFLOXACIN], the IC50 entry is listed as “Not Active”.

In another data set the target is T4, Cytochrome P450 2A6 (Homo sapiens, UniProt P11509). Note: in other assays of this panel Not Active means under 50% inhibition at 10 µM.
T4 sequence (P11509 whole entry): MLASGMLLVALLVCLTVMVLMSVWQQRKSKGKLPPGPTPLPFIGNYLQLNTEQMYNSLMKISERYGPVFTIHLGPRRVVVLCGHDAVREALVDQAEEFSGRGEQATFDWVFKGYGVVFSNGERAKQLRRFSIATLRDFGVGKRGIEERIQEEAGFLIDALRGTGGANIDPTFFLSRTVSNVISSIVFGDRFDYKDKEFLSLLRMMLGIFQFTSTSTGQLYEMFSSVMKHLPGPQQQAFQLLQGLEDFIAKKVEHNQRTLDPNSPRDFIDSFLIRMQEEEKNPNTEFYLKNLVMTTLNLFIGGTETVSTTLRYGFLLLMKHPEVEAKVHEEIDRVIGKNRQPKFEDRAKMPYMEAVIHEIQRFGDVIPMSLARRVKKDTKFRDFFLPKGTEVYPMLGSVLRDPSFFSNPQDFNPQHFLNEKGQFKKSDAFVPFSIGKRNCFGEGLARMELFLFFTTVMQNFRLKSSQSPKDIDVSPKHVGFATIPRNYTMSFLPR
Assay: not given
The settings on record: bti-tn-5b1-4.
In the case of `Nc1nnc(-c2cccc(Cl)c2Cl)c(N)n1` [LAMOTRIGINE], the IC50 entry is given as “Not Active” and the Ki entry is given as “Not Active”.

As to `NNC(=O)c1ccncc1` [ISONIAZID], the IC50 result is reported as “Not Active” and the Ki entry is recorded as “Not Active”.

Turning to `NC(=O)c1ccccc1O` [SALICYLAMIDE], the IC50 entry was “Not Active” and the Ki entry is given as “Not Active”.

With `Nc1ccc(S(N)(=O)=O)cc1` [SULFANILAMIDE], the IC50 entry was “Not Active” and the Ki entry is “Not Active”.

For `CC1CN(c2cc3c(cc2F)c(=O)c(C(=O)O)cn3-c2ccc(F)cc2F)CCN1` (stereo not given) [TEMAFLOXACIN], the IC50 result is “Not Active” and the Ki entry was “Not Active”.
